Holding throughout (assay type): functional
Test [1] concerns Rattus norvegicus. Briefly: Inhibition of passive cutaneous anaphylaxis in po dosed Sprague-Dawley rat. As to conditions: read-out: MED.
Test [2] concerns Rattus norvegicus. As to the kind of experiment: Inhibition of passive cutaneous anaphylaxis in ip dosed Sprague-Dawley rat. As to conditions: for minimal effective dose: read-out: MED.
The subject of test [3] is Rattus norvegicus. Briefly: Inhibition of passive cutaneous anaphylaxis in po dosed Sprague-Dawley rat administered with ball-milled suspension. Particulars: read-out: MED.
The subject of test [4] is Rattus norvegicus. As to the kind of experiment: Ratio of doxantrazole MED to compound MED for inhibition of passive cutaneous anaphylaxis in po dosed Sprague-Dawley rat.
The test system of test [5] is Rattus norvegicus. As to the kind of experiment: Inhibition of passive cutaneous anaphylaxis in ip dosed Sprague-Dawley rat administered with ball-milled suspension. Particulars: read-out: MED.
For test [6], the system named is Rattus norvegicus. Briefly: Ratio of disodium cromoglycate MED to compound MED for inhibition of passive cutaneous anaphylaxis in ip dosed Sprague-Dawley rat.

Bounds are passed on as bounds.

With `O=C(O)c1cnc2c(F)cccc2c1O`, the minimal effective dose in the test on Rattus norvegicus [1] was above 100 mg/kg.
For `COc1cccc2c(O)c(C(=O)O)cnc12`, the minimal effective dose in the test with Rattus norvegicus [2] was 10 mg/kg; in the test with Rattus norvegicus [1] it was above 100 mg/kg.
Taken in the same sequence, the figures for `O=C(O)c1cnc2ccccc2c1` were 50 mg/kg and 150 mg/kg.
On to `Cc1cc(F)c2[nH]cc(-c3nn[nH]n3)c(=O)c2c1.O`, for which the minimal effective dose in the test with Rattus norvegicus [2] was 2.5 mg/kg; with Rattus norvegicus [1] it was above 10 mg/kg.
Take `Cl.O=C(O)c1cnc2ccc(F)cc2c1`: the minimal effective dose with Rattus norvegicus [1] is above 50 mg/kg.
For `O=C(O)c1cnc2ccc(C(F)(F)F)cc2c1`, the minimal effective dose in the test on Rattus norvegicus [2] was above 25 mg/kg; in the test with Rattus norvegicus [1], above 50 mg/kg.
In the case of `COc1ccc2ncc(C(=O)O)cc2c1`, the minimal effective dose in the test on Rattus norvegicus [2] is above 5 mg/kg.
Same read-out and setting: under `O=C(O)c1cnc2ccc(OC3CCCCC3)cc2c1` stands above 25 mg/kg.
Take `O=C(O)c1cnc2ccc(C3CCCCC3)cc2c1`: the minimal effective dose in the test on Rattus norvegicus [2] was above 25 mg/kg.
For `O=C(O)c1cnc2cc(C(F)(F)F)ccc2c1`, the minimal effective dose in the test with Rattus norvegicus [2] and with Rattus norvegicus [1] was above 25 mg/kg throughout.
Regarding `COc1ccc2cc(C(=O)O)cnc2c1.Cl`, in the test on Rattus norvegicus [2], the minimal effective dose is above 25 mg/kg.
As to `O.O=C(O)c1cnc2c(F)cccc2c1`, the minimal effective dose in the test with Rattus norvegicus [2] was above 25 mg/kg; with Rattus norvegicus [1] it was 150 mg/kg.
Taken in the same sequence, the figures for `O=C(O)c1cnc2c(Cl)cccc2c1` were 25 mg/kg and 150 mg/kg.
Taken in the same sequence, the figures for `O=C(O)c1cnc2c(C(F)(F)F)cccc2c1` were 50 mg/kg and 75 mg/kg.
Taken in the same sequence, the figures for `Cc1cccc2cc(C(=O)O)cnc12` were above 50 mg/kg and above 25 mg/kg.
For `CCc1cccc2cc(C(=O)O)cnc12`, the minimal effective dose in the test with Rattus norvegicus [2] was above 50 mg/kg; with Rattus norvegicus [1] it was 75 mg/kg.
With `COc1cccc2cc(C(=O)O)cnc12`, the minimal effective dose stood at 25 mg/kg in the test on Rattus norvegicus [2] and 150 mg/kg with Rattus norvegicus [1].
For the compound `CCOc1cccc2cc(C(=O)O)cnc12`, the minimal effective dose is above 25 mg/kg with Rattus norvegicus [2] and above 50 mg/kg in the test on Rattus norvegicus [1].
Taken in the same sequence, the figures for `COc1ccc(OC)c2ncc(C(=O)O)cc12` were above 25 mg/kg and above 50 mg/kg.
For the compound `O=C(O)c1cnc2c(F)cc(F)cc2c1`, the minimal effective dose with Rattus norvegicus [2] stood at 25 mg/kg.
For `Cc1ccc2cc(C(=O)O)cnc2c1C`, the minimal effective dose in the test on Rattus norvegicus [2] turned out to be 25 mg/kg; with Rattus norvegicus [1], 50 mg/kg.
Taken in the same sequence, the figures for `O=C(O)c1cnc2c3c(ccc2c1)CCCC3` were 25 mg/kg and 50 mg/kg.
Taken in the same sequence, the figures for `O=C(O)c1cnc2c(ccc3ccccc32)c1` were 25 mg/kg and 50 mg/kg.
Taken in the same sequence, the figures for `c1ccc2ncc(-c3nn[nH]n3)cc2c1` were 10 mg/kg and 25 mg/kg.
With `Fc1ccc2ncc(-c3nn[nH]n3)cc2c1`, the minimal effective dose in the test with Rattus norvegicus [2] was below 25 mg/kg; with Rattus norvegicus [1], 50 mg/kg.
Taken in the same sequence, the figures for `COc1ccc2ncc(-c3nn[nH]n3)cc2c1.O` were 10 mg/kg and above 25 mg/kg.
In the case of `Cl.c1cc2ncc(-c3nn[nH]n3)cc2cc1OC1CCCCC1`, the minimal effective dose with Rattus norvegicus [2] turned out to be 5 mg/kg; with Rattus norvegicus [1] it was 10 mg/kg.
For the compound `CCCCc1ccc2ncc(-c3nn[nH]n3)cc2c1`, the minimal effective dose is 5 mg/kg with Rattus norvegicus [2] and above 25 mg/kg in the test on Rattus norvegicus [1].
Taken in the same sequence, the figures for `Cl.c1nc2ccc(C3CCCCC3)cc2cc1-c1nn[nH]n1` were 5 mg/kg and above 25 mg/kg.
On to `FC(F)(F)c1ccc2cc(-c3nn[nH]n3)cnc2c1`, for which the minimal effective dose in the test on Rattus norvegicus [2] was below 10 mg/kg; in the test with Rattus norvegicus [1] it was 25 mg/kg.
Taken in the same sequence, the figures for `COc1ccc2cc(-c3nn[nH]n3)cnc2c1.Cl` were 5 mg/kg and above 25 mg/kg.
Consider `Fc1cccc2cc(-c3nn[nH]n3)cnc12`, for which, in the test on Rattus norvegicus [2], the minimal effective dose was above 10 mg/kg.
In the case of `FC(F)(F)c1cccc2cc(-c3nn[nH]n3)cnc12`, the minimal effective dose in the test on Rattus norvegicus [2] is below 25 mg/kg; in the test with Rattus norvegicus [1], 25 mg/kg.
The corresponding values for `Cc1cccc2cc(-c3nn[nH]n3)cnc12` are below 25 mg/kg and 25 mg/kg.
The corresponding values for `CCc1cccc2cc(-c3nn[nH]n3)cnc12` are 2.5 mg/kg and 5 mg/kg.
Taken in the same sequence, the figures for `COc1cccc2cc(-c3nn[nH]n3)cnc12` were 2.5 mg/kg and above 25 mg/kg.
In the case of `COc1ccc(OC)c2ncc(-c3nn[nH]n3)cc12`, the values for the minimal effective dose with Rattus norvegicus [2] and in the test with Rattus norvegicus [1] were 5 mg/kg and above 50 mg/kg, respectively.
The corresponding values for `Fc1cc(F)c2ncc(-c3nn[nH]n3)cc2c1` are 10 mg/kg and above 50 mg/kg.
Taken in the same sequence, the figures for `Cc1ccc2cc(-c3nn[nH]n3)cnc2c1C` were 1 mg/kg and 25 mg/kg.
Taken in the same sequence, the figures for `c1nc2c3c(ccc2cc1-c1nn[nH]n1)CCCC3` were 5 mg/kg and 5 mg/kg.
Regarding `c1ccc2c(c1)ccc1cc(-c3nn[nH]n3)cnc12`, the minimal effective dose in the test on Rattus norvegicus [2] was 5 mg/kg; with Rattus norvegicus [1] it was 10 mg/kg.
The corresponding values for `Cc1cc([N+](=O)[O-])c2cc(-c3nn[nH]n3)cnc2c1C` are 2.5 mg/kg and 25 mg/kg.
Taken in the same sequence, the figures for `O.O=c1c(-c2nn[nH]n2)c[nH]c2ccccc12` were 1.25 mg/kg and above 20 mg/kg.
The corresponding values for `O.O=c1c(-c2nn[nH]n2)c[nH]c2ccc(F)cc12` are 1.25 mg/kg and above 20 mg/kg.
As for `O=c1c(-c2nn[nH]n2)c[nH]c2ccc(Cl)cc12`, the values for the minimal effective dose with Rattus norvegicus [2] and in the test with Rattus norvegicus [1] were above 10 mg/kg and above 25 mg/kg, respectively.
Taken in the same sequence, the figures for `Cc1ccc2[nH]cc(-c3nn[nH]n3)c(=O)c2c1.O` were 1.25 mg/kg and above 25 mg/kg.
As for `CCc1ccc2[nH]cc(-c3nn[nH]n3)c(=O)c2c1.O`, the figures for the minimal effective dose in the test on Rattus norvegicus [3], in the test on Rattus norvegicus [2] and in the test on Rattus norvegicus [1] were 0.156 mg/kg, below 5 mg/kg and 0.625 mg/kg, respectively.
Regarding `CCc1ccc2c(=O)c(-c3nn[nH]n3)c[nH]c2c1.O`, the minimal effective dose with Rattus norvegicus [2] is below 5 mg/kg; with Rattus norvegicus [1] it was above 10 mg/kg.
Consider `COc1ccc2c(=O)c(-c3nn[nH]n3)c[nH]c2c1`, for which the minimal effective dose in the test with Rattus norvegicus [2] was determined as 10 mg/kg.
For the compound `O=c1c(-c2nn[nH]n2)c[nH]c2c(F)cccc12`, the minimal effective dose was determined as 2.5 mg/kg with Rattus norvegicus [3], 0.625 mg/kg with Rattus norvegicus [2] and 10 mg/kg in the test on Rattus norvegicus [1].
As for `O=c1c(-c2nn[nH]n2)c[nH]c2c(Cl)cccc12`, the Ratio in the test with Rattus norvegicus [4] is 32; in the test with Rattus norvegicus [6] it was 33. Besides, the minimal effective dose with Rattus norvegicus [2] worked out at 0.078 mg/kg; in the test with Rattus norvegicus [5], 0.156 mg/kg.
In the case of `O=c1c(-c2nn[nH]n2)c[nH]c2c(Br)cccc12`, the minimal effective dose with Rattus norvegicus [2] was above 5 mg/kg; in the test with Rattus norvegicus [1], above 10 mg/kg.
The corresponding values for `O=c1c(-c2nn[nH]n2)c[nH]c2c(C(F)(F)F)cccc12` are 0.156 mg/kg and above 25 mg/kg.
The corresponding values for `Cc1cccc2c(=O)c(-c3nn[nH]n3)c[nH]c12` are above 5 mg/kg and above 10 mg/kg.
For the compound `CCc1cccc2c(=O)c(-c3nn[nH]n3)c[nH]c12`, the minimal effective dose is 0.312 mg/kg in the test with Rattus norvegicus [2] and above 25 mg/kg in the test on Rattus norvegicus [1].
The corresponding values for `CC(C)c1cccc2c(=O)c(-c3nn[nH]n3)c[nH]c12` are 1.25 mg/kg and 10 mg/kg.
Taken in the same sequence, the figures for `COc1cccc2c(=O)c(-c3nn[nH]n3)c[nH]c12.O` were 0.15 mg/kg and 0.312 mg/kg.
Taken in the same sequence, the figures for `CC(C)Oc1cccc2c(=O)c(-c3nn[nH]n3)c[nH]c12` were 0.078 mg/kg and 1.25 mg/kg.
As to `CSc1cccc2c(=O)c(-c3nn[nH]n3)c[nH]c12`, the minimal effective dose was found to be 10 mg/kg with Rattus norvegicus [2] and 25 mg/kg in the test with Rattus norvegicus [1].
Turning to `CS(=O)(=O)c1cccc2c(=O)c(-c3nn[nH]n3)c[nH]c12`, the minimal effective dose with Rattus norvegicus [2] is 10 mg/kg; in the test with Rattus norvegicus [1], above 25 mg/kg.
Taken in the same sequence, the figures for `O=c1c(-c2nn[nH]n2)c[nH]c2c(F)ccc(F)c12` were above 0.156 mg/kg and 10 mg/kg.
The corresponding values for `O=c1c(-c2nn[nH]n2)c[nH]c2c(Cl)ccc(Cl)c12` are above 0.156 mg/kg and 0.312 mg/kg.
The corresponding values for `O.O=c1c(-c2nn[nH]n2)c[nH]c2c(Cl)cc(Cl)cc12` are above 0.156 mg/kg and above 10 mg/kg.
Regarding `O=c1c(-c2nn[nH]n2)c[nH]c2c(Cl)c(Cl)ccc12`, the minimal effective dose with Rattus norvegicus [2] was above 0.156 mg/kg; in the test with Rattus norvegicus [1], above 10 mg/kg.
The corresponding values for `COc1ccc(OC)c2c(=O)c(-c3nn[nH]n3)c[nH]c12` are 1.25 mg/kg and above 10 mg/kg.
As for `O.O=c1c(-c2nn[nH]n2)c[nH]c2c3c(ccc12)CCCC3`, the minimal effective dose with Rattus norvegicus [1] was above 25 mg/kg.
As for `COc1ccc2c(O)c(C(=O)O)cnc2c1`, the minimal effective dose was above 50 mg/kg in the test on Rattus norvegicus [2] and above 100 mg/kg in the test with Rattus norvegicus [1].
For the compound `COc1ccc2ncc(C(=O)O)c(O)c2c1`, the minimal effective dose in the test with Rattus norvegicus [2] is above 50 mg/kg; with Rattus norvegicus [1], above 100 mg/kg.
`O=C(O)c1cnc2c(Cl)cccc2c1O`: the minimal effective dose in the test with Rattus norvegicus [1] is above 100 mg/kg.
What is called ED50 is the midpoint of the dose-response relation. In turn, `O=C([O-])c1cc(=O)c2c(OCC(O)COc3cccc4oc(C(=O)[O-])cc(=O)c34)cccc2o1.[Na+].[Na+]` [CROMOLYN SODIUM] had an ED50 in the test with Rattus norvegicus [2] of 2.6 mg/kg.
Consider `O=C1c2ccccc2S(=O)(=O)c2cc(-c3nn[nH]n3)ccc21` [DOXANTRAZOLE], for which the minimal effective dose with Rattus norvegicus [1] worked out at 5 mg/kg.

The values are drawn from ChEMBL document CHEMBL3228005, “Inhibition of rat passive cutaneous anaphylaxis by 3-(tetrazol-5-yl)quinolines” (1979).
